{"source": "patent US5114464A", "about": "“4-quinoxalinyloxyphenoxyalkylinitrile herbicides” (Uniroyal Chemical Company, Inc., priority 1990, dated 1992)", "key": {"rice": {"system": "rice", "assay": "Postemergence selectivity, greenhouse: rice injury (Table V)", "format": "in vivo", "details": "2 weeks", "procedure": "(§1) To illustrate the effectiveness of Compound 1 of this invention as a corn-safe selective postemergence herbicide, the 3000 ppm solution prepared as described in Example 3 was diluted with distilled water to 250 ppm and applied to foliage as described in Example 3. The commercial product Hoelon 3EC® (Hoechst) was included as a standard. The foliage included weedy grasses described in Example 3 in addition to the crops corn, soybeans and cotton. The foliage was planted in a Connecticut greenhouse on May 16, and was treated on May 26. The percent weed control and crop injury was determined on Jun. 12.\n(§2) To illustrate the effectiveness of Compound 2 of this invention as a corn-safe selective postemergence herbicide, various concentrations of the compound were prepared and applied as in Example 5 to the following weeds and crops: velvet leaf (Abutilon theoohrasti Medic.) (VL), prickly sida (Sida spinosa L.) (PS), wild morningglory (Ipomopa sp.) (WM), barnyard grass (Echinolchloa crus-galli (L.) Beauv.) (BG), green foxtail (Setaria viridis) (L.) Beauv.) (GF), wild oat (Avena fatua L.) (WO), corn (CR), soybean (SO), cotton (CT) and rice (RC). The weeds and crops were planted in mid-September in a Connecticut greenhouse and were treated eight days later. The percent weed control and crop injury was determined 2 weeks after treatment."}, "tall morningglory [1]": {"system": "tall morningglory", "assay": "Postemergence control of tall morningglory (Table II)", "format": "in vivo, Ioomea purourea L. Roth", "details": "3000 ppm, two weeks after treatment", "procedure": "(§3) To illustrate the effectiveness of the Compounds 1 and 2 of this invention as preemergence herbicides, 300 mg of each compound were dissolved in 10 ml acetone to which 30 mg of an emulsifying agent, ethoxylated sorbitan monolaurate, were added. The solution was diluted to 100 ml with distilled water. Ten milliliters of the 3000 ppm solution were diluted to 250 ppm with distilled water. The chemical was applied at the rate of 10 lb/A (11.2 kg/ha) by drenching 46 ml of the 250 ppm solution on the surface of soil in 41/2inch (11.25 cm) plastic pots wherein seeds of the following weeds had been planted: velvet leaf (Abutilon theoohrasti Medic.) (VL), prickly sida (sida soinosa L.) (PS), tall morningglory (Ioomea purourea L. Roth) (TM), switchgrass (Panicum viroatum L.) (SG), barnyard grass (Echinolchloa crus-oalli (L.) Beauv.) (BG), and green foxtail (Setaria viridis) (L.) Beauv.) (GF). The percent control of the weeds compared to untreated checks was determined two weeks after treatment.\n(§4) To test the effectiveness of Compounds 1 and 2 of this invention as postemergence herbicides, a 3000 ppm solution of each compound (produced in accordance with the process described under Example 3) was atomized employing a DEVILBISS [trademark] sprayer, wetting the foliage to the drip point. […] The percent weed control was evaluated two weeks after treatment."}, "prickly sida [2]": {"system": "prickly sida", "assay": "Postemergence control of prickly sida (Table II)", "format": "in vivo, sida soinosa L.", "details": "3000 ppm, two weeks after treatment", "procedure": "as §3, §4"}, "grass weeds": {"system": "grass weeds", "assay": "Postemergence selectivity greenhouse (Example 7), summary for grass weeds", "format": "in vivo", "details": "1000 to 3000 ppm", "procedure": "as §1, §2"}, "prickly sida [3]": {"system": "prickly sida", "assay": "Postemergence selectivity, greenhouse: prickly sida (Table V)", "format": "in vivo, Sida spinosa L.", "details": "2 weeks", "procedure": "as §1, §2"}, "weeds [4]": {"system": "weeds", "assay": "Preemergence control, summary statement", "format": "in vivo", "details": "11.2 kg/ha", "procedure": "as §3"}, "cotton": {"system": "cotton", "assay": "Postemergence selectivity, greenhouse: cotton injury (Table V)", "format": "in vivo", "details": "2 weeks", "procedure": "as §1, §2"}, "weeds [5]": {"system": "weeds", "assay": "Postemergence control, summary statement", "format": "in vivo", "details": "3000 ppm", "procedure": "as §3, §4"}, "velvet leaf [6]": {"system": "velvet leaf", "assay": "Postemergence control of velvet leaf (Table II)", "format": "in vivo, Abutilon theoohrasti Medic.", "details": "3000 ppm, two weeks after treatment", "procedure": "as §3, §4"}, "barnyard grass [7]": {"system": "barnyard grass", "assay": "Postemergence control of barnyard grass (Table II)", "format": "in vivo, Echinolchloa crus-oalli (L.) Beauv.", "details": "3000 ppm, two weeks after treatment", "procedure": "as §3, §4"}, "velvet leaf [8]": {"system": "velvet leaf", "assay": "Postemergence selectivity, greenhouse: velvet leaf (Table V)", "format": "in vivo, Abutilon theoohrasti Medic.", "details": "2 weeks", "procedure": "as §1, §2"}, "switchgrass [9]": {"system": "switchgrass", "assay": "Postemergence control of switchgrass (Table II)", "format": "in vivo, Panicum viroatum L.", "details": "3000 ppm, two weeks after treatment", "procedure": "as §3, §4"}, "prickly sida [10]": {"system": "prickly sida", "assay": "Preemergence control of prickly sida (Table I)", "format": "in vivo, sida soinosa L.", "details": "11.2 kg/ha, two weeks after treatment", "procedure": "as §3"}, "wild morningglory": {"system": "wild morningglory", "assay": "Postemergence selectivity, greenhouse: wild morningglory (Table V)", "format": "in vivo, Ipomopa sp.", "details": "2 weeks", "procedure": "as §1, §2"}, "switchgrass [11]": {"system": "switchgrass", "assay": "Preemergence control of switchgrass (Table I)", "format": "in vivo, Panicum viroatum L.", "details": "11.2 kg/ha, two weeks after treatment", "procedure": "as §3"}, "corn": {"system": "corn", "assay": "Postemergence selectivity, greenhouse: corn injury (Table V)", "format": "in vivo", "details": "for Percent crop injury CR: postemergence, 2 weeks", "procedure": "as §1, §2"}, "green foxtail [12]": {"system": "green foxtail", "assay": "Preemergence control of green foxtail (Table I)", "format": "in vivo, Setaria viridis (L.) Beauv.", "details": "11.2 kg/ha, two weeks after treatment", "procedure": "as §3"}, "soybean": {"system": "soybean", "assay": "Postemergence selectivity, greenhouse: soybean injury (Table V)", "format": "in vivo", "details": "2 weeks", "procedure": "as §1, §2"}, "velvet leaf [13]": {"system": "velvet leaf", "assay": "Preemergence control of velvet leaf (Table I)", "format": "in vivo, Abutilon theoohrasti Medic.", "details": "11.2 kg/ha, two weeks after treatment", "procedure": "as §3"}, "green foxtail [14]": {"system": "green foxtail", "assay": "Postemergence control of green foxtail (Table II)", "format": "in vivo, Setaria viridis (L.) Beauv.", "details": "3000 ppm, two weeks after treatment", "procedure": "as §3, §4"}, "green foxtail [15]": {"system": "green foxtail", "assay": "Postemergence selectivity, greenhouse: green foxtail (Table V)", "format": "in vivo, Setaria viridis (L.) Beauv.", "details": "2 weeks", "procedure": "as §1, §2"}, "barnyard grass [16]": {"system": "barnyard grass", "assay": "Postemergence selectivity, greenhouse: barnyard grass (Table V)", "format": "in vivo, Echinolchloa crus-galli (L.) Beauv.", "details": "2 weeks", "procedure": "as §1, §2"}, "tall morningglory [17]": {"system": "tall morningglory", "assay": "Preemergence control of tall morningglory (Table I)", "format": "in vivo, Ioomea purourea L. Roth", "details": "11.2 kg/ha, two weeks after treatment", "procedure": "as §3"}, "wild oat": {"system": "wild oat", "assay": "Postemergence selectivity, greenhouse: wild oat (Table V)", "format": "in vivo, Avena fatua L.", "details": "2 weeks", "procedure": "as §1, §2"}, "barnyard grass [18]": {"system": "barnyard grass", "assay": "Preemergence control of barnyard grass (Table I)", "format": "in vivo, Echinolchloa crus-oalli (L.) Beauv.", "details": "11.2 kg/ha, two weeks after treatment", "procedure": "as §3"}}, "data": [{"compound": "CC(C#N)Oc1ccc(Oc2cnc3cc(Cl)ccc3n2)cc1", "note": "(stereo not shown) [Compound 2, 2-[4-(6-chloro-2-quinoxalinyloxy)phenoxy]propionitrile]", "values": [{"measurement": "Percent crop injury RC", "setting": "rice; 1000 ppm", "value": 50, "unit": "%"}, {"measurement": "Percent crop injury RC", "setting": "rice; 2000 ppm", "value": 50, "unit": "%"}, {"measurement": "Percent crop injury RC", "setting": "rice; 3000 ppm", "value": 50, "unit": "%"}, {"measurement": "% Control TM", "setting": "tall morningglory [1]", "value": 55, "unit": "%"}, {"measurement": "% Control PS", "setting": "prickly sida [2]", "value": 75, "unit": "%"}, {"measurement": "control of several grass weeds", "setting": "grass weeds", "value": "good control of several grass weeds"}, {"measurement": "Percent Weed Control PS", "setting": "prickly sida [3]; 1000 ppm", "value": 0, "unit": "%"}, {"measurement": "Percent Weed Control PS", "setting": "prickly sida [3]; 2000 ppm", "value": 0, "unit": "%"}, {"measurement": "Percent Weed Control PS", "setting": "prickly sida [3]; 3000 ppm", "value": 0, "unit": "%"}, {"measurement": "herbicidal efficacy", "setting": "weeds [4]", "value": "good to excellent herbicidal efficacy"}, {"measurement": "Percent crop injury CT", "setting": "cotton; 1000 ppm", "value": 20, "unit": "%"}, {"measurement": "Percent crop injury CT", "setting": "cotton; 2000 ppm", "value": 20, "unit": "%"}, {"measurement": "Percent crop injury CT", "setting": "cotton; 3000 ppm", "value": 20, "unit": "%"}, {"measurement": "postemergent herbicidal control", "setting": "weeds [5]", "value": "desirable postemergent herbicidal control"}, {"measurement": "% Control VL", "setting": "velvet leaf [6]", "value": 95, "unit": "%"}, {"measurement": "% Control BG", "setting": "barnyard grass [7]", "value": 65, "unit": "%"}, {"measurement": "Percent Weed Control VL", "setting": "velvet leaf [8]; 1000 ppm", "value": 90, "unit": "%"}, {"measurement": "Percent Weed Control VL", "setting": "velvet leaf [8]; 2000 ppm", "value": 90, "unit": "%"}, {"measurement": "Percent Weed Control VL", "setting": "velvet leaf [8]; 3000 ppm", "value": 90, "unit": "%"}, {"measurement": "% Control SG", "setting": "switchgrass [9]", "value": 35, "unit": "%"}, {"measurement": "% Control PS", "setting": "prickly sida [10]", "value": 0, "unit": "%"}, {"measurement": "Percent Weed Control WM", "setting": "wild morningglory; 1000 ppm", "value": 10, "unit": "%"}, {"measurement": "Percent Weed Control WM", "setting": "wild morningglory; 2000 ppm", "value": 10, "unit": "%"}, {"measurement": "Percent Weed Control WM", "setting": "wild morningglory; 3000 ppm", "value": 20, "unit": "%"}, {"measurement": "% Control SG", "setting": "switchgrass [11]", "value": 100, "unit": "%"}, {"measurement": "Percent crop injury CR", "setting": "corn; 1000 ppm", "value": 0, "unit": "%"}, {"measurement": "corn safety", "setting": "corn; 1000 to 3000 ppm", "value": "substantially innocuous to corn"}, {"measurement": "Percent crop injury CR", "setting": "corn; 2000 ppm", "value": 0, "unit": "%"}, {"measurement": "Percent crop injury CR", "setting": "corn; 3000 ppm", "value": 0, "unit": "%"}, {"measurement": "% Control GF", "setting": "green foxtail [12]", "value": 25, "unit": "%"}, {"measurement": "Percent crop injury SO", "setting": "soybean; 1000 ppm", "value": 20, "unit": "%"}, {"measurement": "Percent crop injury SO", "setting": "soybean; 2000 ppm", "value": 20, "unit": "%"}, {"measurement": "Percent crop injury SO", "setting": "soybean; 3000 ppm", "value": 20, "unit": "%"}, {"measurement": "% Control VL", "setting": "velvet leaf [13]", "value": 0, "unit": "%"}, {"measurement": "% Control GF", "setting": "green foxtail [14]", "value": 95, "unit": "%"}, {"measurement": "Percent Weed Control GF", "setting": "green foxtail [15]; 1000 ppm", "value": 100, "unit": "%"}, {"measurement": "Percent Weed Control GF", "setting": "green foxtail [15]; 2000 ppm", "value": 100, "unit": "%"}, {"measurement": "Percent Weed Control GF", "setting": "green foxtail [15]; 3000 ppm", "value": 100, "unit": "%"}, {"measurement": "Percent Weed Control BG", "setting": "barnyard grass [16]; 1000 ppm", "value": 85, "unit": "%"}, {"measurement": "Percent Weed Control BG", "setting": "barnyard grass [16]; 2000 ppm", "value": 85, "unit": "%"}, {"measurement": "Percent Weed Control BG", "setting": "barnyard grass [16]; 3000 ppm", "value": 95, "unit": "%"}, {"measurement": "% Control TM", "setting": "tall morningglory [17]", "value": 0, "unit": "%"}, {"measurement": "Percent Weed Control WO", "setting": "wild oat; 1000 ppm", "value": 0, "unit": "%"}, {"measurement": "Percent Weed Control WO", "setting": "wild oat; 2000 ppm", "value": 0, "unit": "%"}, {"measurement": "Percent Weed Control WO", "setting": "wild oat; 3000 ppm", "value": 10, "unit": "%"}, {"measurement": "% Control BG", "setting": "barnyard grass [18]", "value": 50, "unit": "%"}]}]}
